Earlier results as cited in patent publication US20160015722A1, “TREATMENT OF ENDOMETRIOSIS” (priority 2014, published 2016).

Tested on: FSH (Follicle Stimulating Hormone) and LH (Leutinizing Hormone) release from the pituitary
Details: for FSH and LH release from the pituitary gland: previous hormonal treatments of endometriosis

Compound | FSH and LH release from the pituitary (nandrolone used alone) | FSH and LH release from the pituitary gland
C[C@]12CC[C@H]3[C@@H](CCC4=CC(=O)CC[C@@H]43)[C@@H]1CC[C@@H]2O [Nandrolone, nandrolone] | suppresses | 
C#C[C@]1(O)CC[C@H]2[C@@H]3CCC4=Cc5oncc5C[C@]4(C)[C@H]3CC[C@@]21C [danazol] |  | suppress
luprolide acetate |  | suppress
